For data set [1] the following is noted: Crystal; DTA.
Data set [2] is described as follows: Molar enthalpy of transition or fusion. The note with it: Crystal; DSC.

The structures appear in SMILES notation. Numbers after ± are expanded uncertainties.

On to `CC(C)Cc1ccc(C(C)C(=O)O)cc1` (stereo not given) [ibuprofen], for which the Normal melting temperature in data set [1] turned out to be 74.6 ± 0.39 °C. For `O=c1cc(O)c2ccccc2o1` [4-hydroxycoumarin], the Normal melting temperature in data set [1] was found to be 215.2 ± 0.39 °C. Still for that read-out and setting: the same measure for `NNC(=O)c1ccncc1` [isonicotinic acid hydrazide]: 172.69 ± 1.1 °C. For the compound `CC(=O)N[C@@H](CS)C(=O)O` [N-acetyl-L-cysteine], the “Molar enthalpy of transition or fusion” value in data set [2] worked out at 7.67 ± 0.167 kcal/mol. `CC1=CC(=O)C(C(C)C)=CC1=O` [2-isopropyl-5-methylcyclohexa-2,5-diene-1,4-dione]: in data set [1], the Normal melting temperature was 43.6 ± 0.5 °C.

Values taken from the NIST ThermoML archive (doi:10.1016/j.fluid.2015.03.053).
